Measurements as given in patent publication US9533977B2, “Oxazolidinone derivative as CETP inhibitor, its preparation method, and pharmaceutical composition comprising the same” (DONG-A ST CO., LTD., priority 2013, dated 2017).
Values belong to the compound of their own block, whether it stands above or below them.

Molecular target: T1, CETP (Homo sapiens, UniProt P11597)
T1 construct: from tissue; host or cells: human plasma from healthy men
T1 sequence (P11597 18-493): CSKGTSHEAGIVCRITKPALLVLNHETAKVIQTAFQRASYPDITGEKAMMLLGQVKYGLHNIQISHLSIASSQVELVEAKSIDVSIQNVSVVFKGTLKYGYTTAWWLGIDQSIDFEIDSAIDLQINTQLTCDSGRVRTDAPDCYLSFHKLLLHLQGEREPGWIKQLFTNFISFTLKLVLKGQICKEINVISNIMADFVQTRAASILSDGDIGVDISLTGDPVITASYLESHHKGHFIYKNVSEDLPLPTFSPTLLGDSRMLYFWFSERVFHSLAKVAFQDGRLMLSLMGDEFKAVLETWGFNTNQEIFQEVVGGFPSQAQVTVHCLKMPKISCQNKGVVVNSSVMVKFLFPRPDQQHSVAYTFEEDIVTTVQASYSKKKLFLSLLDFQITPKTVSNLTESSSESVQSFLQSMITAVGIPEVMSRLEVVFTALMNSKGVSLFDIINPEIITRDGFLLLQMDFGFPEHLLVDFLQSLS
Assay: Inhibitory activity against CETP in human plasma (Roar CETP activity kit, fluorescence)
Format: biochemical
Details: plasma from healthy men diluted 1:10 in assay buffer, 37° C., 3 hrs, fluorescence 465/535 nm; read-out: IC50, Inhibition of CETP Activity in Human Plasma
Method: A CETP activity kit (#RB-CETP) was purchased from Roar […], Inc. A donor and an acceptor (each, 4 ul), a 10× assay buffer (177 ul), and each of dilutions of test compounds in dimethylsulfoxide (DMSO, Sigma-Aldrich) (0.01 nM˜10000 nM) were added to each well of black round-bottom 96-well plates (Corning #3792). Plasma samples from healthy men were diluted in the assay buffer (1:10=plasma:assay buffer), and added to each well. The plates were sealed with a sealing film (Sigma-Aldrich, #Z369659), and incubated in a 37° C. incubator microplate shaker (#SLST-3, Seolin Bio) for 3 hrs. After removal of the sealing film, fluorescence was read on Spectra Max Gemini EM (Molecular devices) with an excitation wavelength of 465 nm and an emission wavelength of 535 nm. Measurements were calculated according to the following formula. Calculated value=(Fluorescence Intensity with both compound and plasma−Fluorescence Intensity with compound but without plasma)/(Fluorescence Intensity with plasma but without compound−Fluorescence Intensity with neither compound nor plasma)
From the calculated value, a sigmoidal curve (y=start+(end-start)x^n/k^n+x^n) was drawn using Origin Software (OriginLab Corporation, ver. 8.0724) to obtain IC50 values.

IC50: 7.9 nM
Compound: CCN(c1ncc(N2CCC2)cc1CN1C(=O)O[C@H](c2cc(C(F)(F)F)cc(C(F)(F)F)c2)[C@@H]1C)C1CCOCC1 [Example 43, (4S,5R)-5-[3,5-bis(trifluoromethyl)phenyl]-4-methyl-3-({[2-(ethyl)(tetrahydro-2H-pyran-4-yl)amino]-5-(azetidin-1-yl)pyridin-3-yl}methyl)-oxazolidin-2-one]

IC50: 57 nM
Compound: CCN(c1ncc(N2CCCCC2)cc1CN1C(=O)O[C@H](c2cc(C(F)(F)F)cc(C(F)(F)F)c2)[C@@H]1C)C1CCOCC1 [Example 44, (4S,5R)-5-[3,5-bis(trifluoromethyl)phenyl]-4-methyl-3-({[2-(ethyl)(tetrahydro-2H-pyran-4-yl)amino]-5-(piperidin-1-yl)pyridin-3-yl}methyl)-oxazolidin-2-one]

IC50: 26.9 nM
Compound: CCN(c1ncc(-c2ccccc2)cc1CN1C(=O)O[C@H](c2cc(C(F)(F)F)cc(C(F)(F)F)c2)[C@@H]1C)C1CCOCC1 [Example 45, (4S,5R)-5-[3,5-bis(trifluoromethyl)phenyl]-4-methyl-3-({[2-(ethyl)(tetrahydro-2H-pyran-4-yl)amino]-5-phenylpyridin-3-yl}methyl)-oxazolidin-2-one]

IC50: 28 nM
Compound: CCN(c1ncc(-c2cccc(C)c2)cc1CN1C(=O)O[C@H](c2cc(C(F)(F)F)cc(C(F)(F)F)c2)[C@@H]1C)C1CCOCC1 [Example 46, (4S,5R)-5-[3,5-bis(trifluoromethyl)phenyl]-4-methyl-3-({[2-(ethyl)(tetrahydro-2H-pyran-4-yl)amino]-5-(3-methylphenyl)pyridin-3-yl}methyl)-oxazolidin-2-one]

IC50: 45 nM
Compound: CCN(c1ncc(-c2cccc(F)c2)cc1CN1C(=O)O[C@H](c2cc(C(F)(F)F)cc(C(F)(F)F)c2)[C@@H]1C)C1CCOCC1 [Example 47, (4S,5R)-5-[3,5-bis(trifluoromethyl)phenyl]-4-methyl-3-({[2-(ethyl)(tetrahydro-2H-pyran-4-yl)amino]-5-(3-fluorophenyl)pyridin-3-yl}methyl)-oxazolidin-2-one]

IC50: 133 nM
Compound: CCOc1cccc(-c2cnc(N(CC)C3CCOCC3)c(CN3C(=O)O[C@H](c4cc(C(F)(F)F)cc(C(F)(F)F)c4)[C@@H]3C)c2)c1 [Example 48, (4S,5R)-5-[3,5-bis(trifluoromethyl)phenyl]-4-methyl-3-({[2-(ethyl)(tetrahydro-2H-pyran-4-yl)amino]-5-(3-ethoxyphenyl)pyridin-3-yl}methyl)-oxazolidin-2-one]

IC50: 23.7 nM
Compound: CCN(c1ncc(-c2ccco2)cc1CN1C(=O)O[C@H](c2cc(C(F)(F)F)cc(C(F)(F)F)c2)[C@@H]1C)C1CCOCC1 [Example 49, (4S,5R)-5-[3,5-bis(trifluoromethyl)phenyl]-4-methyl-3-({[2-(ethyl)(tetrahydro-2H-pyran-4-yl)amino]-5-(furan-2-yl)pyridin-3-yl}methyl)-oxazolidin-2-one]

IC50: 12.7 nM
Compound: CCN(c1ncc(-c2c(C)noc2C)cc1CN1C(=O)O[C@H](c2cc(C(F)(F)F)cc(C(F)(F)F)c2)[C@@H]1C)C1CCOCC1 [Example 51]

IC50: 73.4 nM
Compound: CCN(c1ncccc1CN1C(=O)O[C@H](c2cc(C(F)(F)F)cc(C(F)(F)F)c2)[C@@H]1C)C1CCOCC1 [Example 52, (4S,5R)-5-[3,5-bis(trifluoromethyl)phenyl]-4-methyl-3-({[2-(ethyl)(tetrahydro-2H-pyran-4-yl)amino]-pyridin-3-yl}methyl)-oxazolidin-2-one]

IC50: 5.2 nM
Compound: CCN(c1ncc(C(F)(F)F)cc1CN1C(=O)O[C@H](c2cc(C(F)(F)F)cc(C(F)(F)F)c2)[C@@H]1C)C1CCCCC1 [Example 53, (4S,5R)-5-[3,5-bis(trifluoromethyl)phenyl]-4-methyl-3-({[2-(ethyl)(cyclohexyl)amino]-5-(trifluoromethyl)pyridin-3-yl}methyl)-oxazolidin-2-one]

IC50: 19 nM
Compound: CCN(c1ncc(C#N)cc1CN1C(=O)O[C@H](c2cc(C(F)(F)F)cc(C(F)(F)F)c2)[C@@H]1C)C1CCCCC1 [Example 54]

IC50: 11.1 nM
Compound: CCN(c1ncc(OS(C)(=O)=O)cc1CN1C(=O)O[C@H](c2cc(C(F)(F)F)cc(C(F)(F)F)c2)[C@@H]1C)C1CCCCC1 [Example 55, 5-{[(4S,5R)-5-[3,5-bis(trifluoromethyl)phenyl]-4-methyl-2-oxo-oxazolidin-3-yl]methyl}-6-[(cyclohexyl)(ethyl)amino]-pyridin-3-yl methanesulfonate]

More lines, now with the values behind:

Compound: CCN(c1ncc(C(F)(F)F)cc1CN1C(=O)O[C@H](c2cc(C(F)(F)F)cc(C(F)(F)F)c2)[C@@H]1C)C1CCN(S(C)(=O)=O)CC1 [Example 32, (4S,5R)-5-[3,5-bis(trifluoromethyl)phenyl]-4-methyl-3-({[2-(ethyl)(1-methanesulfonylpiperidin-4-yl)amino]-5-trifluoromethylpyridin-3-yl}methyl)-oxazolidin-2-one]
IC50: 410 nM

Compound: CCN(c1ncc(C(F)(F)F)cc1CN1C(=O)O[C@H](c2cc(C(F)(F)F)cc(C(F)(F)F)c2)[C@@H]1C)C1CCN(C(C)=O)CC1 [Example 33, (4S,5R)-5-[3,5-bis(trifluoromethyl)phenyl]-4-methyl-3-({[2-(ethyl)(1-acetylpiperidin-4-yl)amino]-5-(trifluoromethyl)pyridin-3-yl}methyl)-oxazolidin-2-one]
IC50: 39.9 nM

Compound: CCC(=O)N1CCC(N(CC)c2ncc(C(F)(F)F)cc2CN2C(=O)O[C@H](c3cc(C(F)(F)F)cc(C(F)(F)F)c3)[C@@H]2C)CC1 [Example 34, (4S,5R)-5-[3,5-bis(trifluoromethyl)phenyl]-4-methyl-3-({[2-(ethyl)(1-propionylpiperidin-4-yl)amino]-5-(trifluoromethyl)pyridin-3-yl}methyl)-oxazolidin-2-one]
IC50: 62 nM

Compound: CCN(c1ncc(C(F)(F)F)cc1CN1C(=O)O[C@H](c2cc(C(F)(F)F)cc(C(F)(F)F)c2)[C@@H]1C)C1CCN(C(=O)OC)CC1 [Example 35, methyl 4-{[3-({(4S,5R)-5-[3,5-bis(trifluoromethyl)phenyl]-4-methyl-2-oxo-oxazolidin-3-yl}methyl)-5-(trifluoromethyl)pyridin-2-yl](ethyl)amino}piperidine-1-carboxylate]
IC50: 20 nM

Compound: CCOC(=O)N1CCC(N(CC)c2ncc(C(F)(F)F)cc2CN2C(=O)O[C@H](c3cc(C(F)(F)F)cc(C(F)(F)F)c3)[C@@H]2C)CC1 [Example 36, ethyl 4-{[3-({(4S,5R)-5-[3,5-bis(trifluoromethyl)phenyl]-4-methyl-2-oxo-oxazolidin-3-yl}methyl)-5-(trifluoromethyl)pyridin-2-yl](ethyl)amino}piperidine-1-carboxylate]
IC50: 220 nM

Compound: CCN(c1ncc(C(F)(F)F)cc1CN1C(=O)O[C@H](c2cc(C(F)(F)F)cc(C(F)(F)F)c2)[C@@H]1C)C1CCN(C(=O)N(C)C)CC1 [Example 37, methyl 4-{[3-({(4S,5R)-5-[3,5-bis(trifluoromethyl)phenyl]-4-methyl-2-oxo-oxazolidin-3-yl}methyl)-5-(trifluoromethyl)pyridin-2-yl](ethyl)amino}-N,N-dimethylpiperidine-1-carboxamide]
IC50: 498 nM

Compound: CCN(c1ncc(C(F)(F)F)cc1CN1C(=O)O[C@H](c2cc(C(F)(F)F)cc(C(F)(F)F)c2)[C@@H]1C)C1CCN(CC(=O)OC)CC1 [Example 38, methyl 2-(4-{[3-({(4S,5R)-5-[3,5-bis(trifluoromethyl)phenyl]-4-methyl-2-oxo-oxazolidin-3-yl}methyl)-5-(trifluoromethyl)pyridin-2-yl](ethyl)amino}piperidin-1-yl)acetate]
IC50: 19.3 nM

Compound: CCN(c1ncc(C(F)(F)F)cc1CN1C(=O)O[C@H](c2cc(C(F)(F)F)cc(C(F)(F)F)c2)[C@@H]1C)C1CCN(CC(=O)O)CC1 [Example 39, 2-(4-{[3-({(4S,5R)-5-[3,5-bis(trifluoromethyl)phenyl]-4-methyl-2-oxo-oxazolidin-3-yl}methyl)-5-(trifluoromethyl)pyridin-2-yl](ethyl)amino}piperidin-1-yl)acetic acid]
IC50: 492 nM

Compound: CCN(c1ncc(Br)cc1CN1C(=O)O[C@H](c2cc(C(F)(F)F)cc(C(F)(F)F)c2)[C@@H]1C)C1CCOCC1 [Example 40, (4S,5R)-5-[3,5-bis(trifluoromethyl)phenyl]-4-methyl-3-({[2-(ethyl)(tetrahydro-2H-pyran-4-yl)amino]-5-bromopyridin-3-yl}methyl)-oxazolidin-2-one]
IC50: 19.8 nM

Compound: CCN(c1ncc(N2CCCC2)cc1CN1C(=O)O[C@H](c2cc(C(F)(F)F)cc(C(F)(F)F)c2)[C@@H]1C)C1CCOCC1 [Example 41, (4S,5R)-5-[3,5-bis(trifluoromethyl)phenyl]-4-methyl-3-({[2-(ethyl)(tetrahydro-2H-pyran-4-yl)amino]-5-(pyrrolidin-1-yl)pyridin-3-yl}methyl)-oxazolidin-2-one]
IC50: 2.4 nM
